Literature values in US9314524B2, “Topical formulations of Flucytosine” (priority 2007, dated 2016).

What was measured:
[1] = tested on: 227 clinical yeast isolates; conditions: for cross-resistance in fluconazole/itraconazole resistant C. albicans isolates: polyene antibiotics
C. glabrata = conditions: 600-mg day for 2 to 3 weeks
C. albicans = conditions: yeasts from 104 patients with vulvovaginal candidiasis
Candida albicans = conditions: 342 Candida albicans strains
Candida glabrata = conditions: 68 Candida glabrata strains
Candida parapsilosis = conditions: 65 Candida parapsilosis strains
Candida tropicalis = conditions: 70 Candida tropicalis strains
C. tropicalis = conditions: 200-mg for 14 days, second line, 3 patients treated
[2] = human, in vivo

SMILES: C[C@@H]1[C@H](O)[C@@H](C)/C=C/C=C/CC/C=C/C=C/C=C/C=C/C(O[C@H]2O[C@H](C)[C@@H](O)[C@H](N)[C@@H]2O)CC2O[C@](O)(CC(O)C(O)CCC(O)CC(O)CC(O)CC(=O)O[C@H]1C)CC(O)C2C(=O)O (stereo partly drawn) [nystatin]
- cross-resistance in fluconazole/itraconazole resistant C. albicans isolates [1]: no cross-resistance

SMILES: OB(O)O [boric acid]
- clinical and mycological success (C. glabrata): 64%
- clinical and mycological success, symptomatic women (C. glabrata): 47 of 73

SMILES: OC(Cn1cncn1)(Cn1cncn1)c1ccc(F)cc1F [fluconazole]
- resistant C. albicans isolated, share of cases (C. albicans): 13.46%
- yeast strains resistant ([1]; 227 vaginal clinical yeast isolates): thirteen
- isolates showing resistance (Candida albicans): 7.6%
- isolates demonstrating resistance (Candida glabrata): 10.3%
- isolates demonstrating resistance (Candida parapsilosis): 4.6%

SMILES: CC(=O)N1CCN(c2ccc(OCC3COC(Cn4ccnc4)(c4ccc(Cl)cc4Cl)O3)cc2)CC1 (stereo not drawn) [ketoconazole]
- isolates resistant (Candida tropicalis): 2.9%
- patients in whom the infection recurred (C. tropicalis): three

SMILES: Nc1nc(=O)[nH]cc1F [flucytosine, 4-amino-5-fluoropyrimidin-2(1H)-one]
- plasma level that led to bone marrow depression and hepatotoxicity [2]: greater than 100 mg/L

SMILES: C[C@@H]1[C@H](O)[C@@H](C)/C=C/C=C/C=C/C=C/C=C/C=C/C=C/[C@H](O[C@@H]2O[C@H](C)[C@@H](O)[C@H](N)[C@@H]2O)C[C@@H]2O[C@](O)(C[C@@H](O)C[C@@H](O)[C@H](O)CC[C@@H](O)C[C@@H](O)CC(=O)O[C@H]1C)C[C@H](O)[C@H]2C(=O)O [amphotericin B]
- cross-resistance in fluconazole/itraconazole resistant C. albicans isolates [1]: no cross-resistance
